Results: ChEMBL document CHEMBL1155788, “Bis(sulfonamide) isosters of mycophenolic adenine dinucleotide analogues: inhibition of inosine monophosphate dehydrogenase” (Bioorg Med Chem, 2008)

Tests used:
[1] = target: Inosine-5'-monophosphate dehydrogenase 1 (Homo sapiens, UniProt P20839); test: Inhibition of human IMP dehydrogenase 1
[2] = target: Inosine-5'-monophosphate dehydrogenase 2 (Homo sapiens, UniProt P12268); test: Inhibition of human IMP dehydrogenase 2
[3] = Inhibition of IMP dehydrogenase

Inosine-5'-monophosphate dehydrogenase 1, sequence (P20839 whole entry): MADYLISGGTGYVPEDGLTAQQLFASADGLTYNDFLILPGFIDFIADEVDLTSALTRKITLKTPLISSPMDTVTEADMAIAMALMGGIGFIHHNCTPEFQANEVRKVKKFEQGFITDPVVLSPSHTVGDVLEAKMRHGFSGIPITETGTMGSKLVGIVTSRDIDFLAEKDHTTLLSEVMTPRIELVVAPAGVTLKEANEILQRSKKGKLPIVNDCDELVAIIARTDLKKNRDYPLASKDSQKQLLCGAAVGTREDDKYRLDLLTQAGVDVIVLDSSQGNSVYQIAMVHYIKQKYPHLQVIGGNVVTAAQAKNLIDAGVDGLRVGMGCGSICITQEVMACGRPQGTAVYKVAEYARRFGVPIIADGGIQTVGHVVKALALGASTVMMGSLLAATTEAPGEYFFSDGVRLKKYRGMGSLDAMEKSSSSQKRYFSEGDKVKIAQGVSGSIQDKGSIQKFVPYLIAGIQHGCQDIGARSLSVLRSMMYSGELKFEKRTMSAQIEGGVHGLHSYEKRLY

Ki [1] [nM]	Ki [2] [nM]	Ki [3] [nM]	IC50 [1] [nM]	Structure (SMILES)
520	180			C#Cc1nc(N)c2ncn([C@@H]3O[C@H](CNS(=O)(=O)CS(=O)(=O)NCCc4c(O)c5c(c(C)c4OC)COC5=O)[C@@H](O)[C@H]3O)c2n1
70				COc1c(C)c2c(c(O)c1CCOP(=O)(O)CP(=O)(O)OC[C@H]1O[C@@H](n3cnc4c(N)nc(-c5ccccc5)nc43)[C@H](O)[C@@H]1O)C(=O)OC2
820	440			CCc1nc(N)c2ncn([C@@H]3O[C@H](CNS(=O)(=O)CS(=O)(=O)NCCc4c(O)c5c(c(C)c4OC)COC5=O)[C@@H](O)[C@H]3O)c2n1
		40		NC(=O)c1c[se]c([C@@H]2O[C@H](COP(=O)(O)OP(=O)(O)OC[C@H]3O[C@@H](n4cnc5c(N)ncnc54)[C@H](O)[C@@H]3O)[C@@H](O)[C@H]2O)n1
> 100000	> 100000			Nc1ncnc2c1ncn2[C@@H]1O[C@H](CNS(=O)(=O)CS(N)(=O)=O)[C@@H](O)[C@H]1O
15400	3000			COc1c(C)c2c(c(O)c1CCO)C(=O)OC2
			23600	NC(=O)c1csc([C@@H]2O[C@H](CNS(=O)(=O)CS(=O)(=O)NC[C@H]3O[C@@H](n4cnc5c(N)ncnc54)[C@H](O)[C@@H]3O)[C@@H](O)[C@H]2O)n1
660	310			COc1c(C)c2c(c(O)c1CCNS(=O)(=O)CS(=O)(=O)NC[C@H]1O[C@@H](n3cnc4c(N)nc(-c5ccccc5)nc43)[C@H](O)[C@@H]1O)C(=O)OC2
> 100000	> 100000			Nc1ncnc2c1ncn2[C@@H]1O[C@H](CO)[C@@H](O)[C@H]1O [ADENOSINE]
18200	4000			COc1c(C)c2c(c(O)c1CCNS(=O)(=O)CS(N)(=O)=O)C(=O)OC2 [MYCOPHENOLIC BIS(SULFONAMIDE)]
		100		NC(=O)c1csc([C@@H]2O[C@H](COP(=O)(O)OP(=O)(O)OC[C@H]3O[C@@H](n4cnc5c(N)ncnc54)[C@H](O)[C@@H]3O)[C@@H](O)[C@H]2O)n1 [TIAZOFURIN ADENINE DINUCLEOTIDE]
		100		NC(=O)c1csc([C@@H]2O[C@H](CO)[C@@H](O)[C@H]2O)n1 [TIAZOFURIN]
